Experimental data from patent US20080199439A1, “IAP-binding cargo molecules and peptidomimetics for use in diagnostic and therapeutic methods” (priority 2003, published 2008).

Assays:
HeLa cells [1] = settings: compared with Smac N-terminal tetrapeptide AVPI
Excerpt: This example illustrates the use of an labeled IAP-binding cargo molecule to bind with IAP within cells and tissues and inducing apoptosis.

recombinant XIAP-BIR3 = recombinant XIAP-BIR3 (Homo sapiens, UniProt P98170); settings: 550 nm peak of free AVPC-badan; binding to recombinant XIAP-BIR3
Excerpt: Without wishing to be bound by theory, upon binding to an IAP protein, the labeled IAP-binding cargo molecule packs into the groove of the BIR3 (SEQ ID NO: 15) causing a detectable shift in emission maximum and intensity when the environment of the fluorophore changes from water to the hydrophobic pocket of the protein.

HeLa cells [2] = system: HeLa cells; design: dose or concentration left out as unconfirmed; settings: 48 minutes, confocal microscopy
HeLa cells [3] = test: Competition of AVPC-badan emission by AVPF in HeLa cells; type: cell-based; settings: AVPC-badan 0.1 mM, 100 equivalents AVPF, 30 minutes, emission 435-485 nm
Method: (§1) The emission between 435-485 nm after exposure of cells for 30 minutes is shown in each case. […] The emission between 385-470 nm and >505 nm after exposure of cells for 36 minutes is shown in each case;
(§2) Thus, the primary action of the IAP binding cargo molecule appears to be by binding to IAP proteins, thus releasing any activated caspases and thereby promoting apoptosis.

A498 cells = test: Competition of AVPC-badan emission by AVPF in A498 cells; type: cell-based; settings: AVPC-badan 8 mM, 100 equivalents AVPF, 36 minutes, emission 385-470 nm and >505 nm
Method: as §1, §2

recombinant XIAP-BIR3, sequence (P98170 265-330 limits assumed): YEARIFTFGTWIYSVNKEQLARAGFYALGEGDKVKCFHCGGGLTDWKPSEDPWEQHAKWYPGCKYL

Molecule | induction of apoptosis (kinetics) (HeLa cells [1]) | change of emission peak and intensity on binding (recombinant XIAP-BIR3) | intracellular localization of the peptide (HeLa cells [2]) | effect of competitor on intensity of AVPC-badan emission (HeLa cells [3]) | effect of competitor on intensity of AVPC-badan emission (A498 cells)
CC(N)C(=O)NC(C(=O)N1CCCC1C(=O)NC(CSCC(=O)c1ccc2cc(N(C)C)ccc2c1)C(=O)O)C(C)C (centres unmarked) [AVPC-badan] | induced apoptosis with kinetics similar to those of the Smac N-terminal tetrapeptide AVPI | shifts to 542 nm and increases in intensity | diffuse cytosolic distribution |  | 
AVPF: competitor peptide AVPF (SEQ ID NO: 19) |  |  |  | intensity of emission was found to diminish | intensity of emission was found to diminish
